Source: patent EP0086256A1, “1-(2,4-Dichlorophenoxy)-3-(3,4-dimethoxy-beta-phenethylamino)-propan-2-0l, processes for its preparation and pharmaceutical compositions containing it” (VEB Arzneimittelwerk Dresden, priority 1981, dated 1983)
Where two headings read alike, the source gives them in different places. Values belong to the compound of their own block, whether it stands above or below them.

What was measured:
β2-Rezeptoren der Gefäße [1] = test: Stimulating effects on vascular β2 receptors, comparison with the known 2,5-dichloro compound; conditions: compared with the 2,4-Dichlor-Verbindung
Text: 1-Phenoxy-3-alkylamino-propanole-(2) sind mehrfach beschrieben worden (DE-PS 2259 489, DE-PS 2213 044, DD-AP 45 360, BE-PS 783 086, NE-PS 6813 616, GD-PS 1148 563, NE-PS 7307 821, DD-AP 93 349, GB-PS 1078 852, BE-PS 746 107). Auch das 1-(2,5-Dichlor-phenoxy )-3-(3,4-dimethoxy-ß-phenethylamino)-propanol-(2) ist bekannt (JA-0 52033 829); es unterscheidet sich in seiner Wirksamkeit gegenüber der erfindungsgemäßen 2,4-Dichlor-Verbindung jedoch dadurch, daß die ausgeprügten stimulierenden Effekte an den β2-Rezeptoren der Gefäße, die eine große Bedeutung für den therapeutischen Einsatz besitzen, fehlen.

[2] = tested on: Nikotintremor des Meerschweinchens; test: Nicotine tremor, antiparkinson effect; format: in vivo, Meerschweinchen; conditions: compared with Trihexylphenidyl (Parkopan)
Text: (§1) Aus diesem Grunde ist die Anwendung von nichtselektiv wirkenden β-Rezeptorenblockern bei Patienten mit obstruktiven Atemwegserkrankungen kontraindiziert. Aber auch die Anwendung der sogenannten kardioselektiven ß-Rezeptorenblocker, z. […] Disposition des Patienten zur Dyspnoe führen bzw. einen Asthmaanfall auslösen können.

[3] = tested on: spontan hypertensive Ratte; test: Antihypertensive effect in the spontaneously hypertensive rat; format: in vivo; conditions: fold stronger than Propranolol
Text: as §1

[4] = molecular target: T1, adrenergen β2-Rezeptoren der Bronchialmuskulatur (Canis lupus familiaris, UniProt P54833); test: Respiratory minute volume in the anaesthetised dog; format: in vivo; conditions: narkotisierter Hund; 0,1 mg/kg
T1 construct: from tissue; host or cells: dog, whole animal (blood vessels; bronchial muscle in the anaesthetised dog)
T1 sequence (P54833 whole entry): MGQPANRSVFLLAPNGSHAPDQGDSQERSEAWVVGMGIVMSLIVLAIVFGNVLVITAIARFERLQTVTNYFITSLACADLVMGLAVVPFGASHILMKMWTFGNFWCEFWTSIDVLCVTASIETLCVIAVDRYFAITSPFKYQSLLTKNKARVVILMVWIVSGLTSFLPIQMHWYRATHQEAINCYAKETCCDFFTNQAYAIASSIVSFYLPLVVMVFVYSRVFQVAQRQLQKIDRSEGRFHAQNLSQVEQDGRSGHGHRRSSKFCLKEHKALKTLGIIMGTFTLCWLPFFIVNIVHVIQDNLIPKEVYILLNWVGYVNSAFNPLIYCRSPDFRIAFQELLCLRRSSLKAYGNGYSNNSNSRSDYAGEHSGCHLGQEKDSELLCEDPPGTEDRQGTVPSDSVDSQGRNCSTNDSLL
Text: as §1

β2-Rezeptoren der Gefäße [5] = molecular target: T2, β2-Rezeptoren der Gefäße (Canis lupus familiaris, UniProt P54833); test: Influence on the blood-pressure-lowering effect of isoproterenol; format: in vivo; conditions: Hund
T2 construct: from tissue; host or cells: dog, whole animal (blood vessels; bronchial muscle in the anaesthetised dog)
T2 sequence (P54833 whole entry): as above
Text: as §1

β2-Rezeptoren der Gefäße [6] = molecular target: T3, β2-Rezeptoren der Gefäße (Felis catus, UniProt Q9TST5); test: as above; format: in vivo; conditions: Katze
T3 construct: from tissue; host or cells: cat, whole animal (blood vessels)
T3 sequence (Q9TST5 whole entry): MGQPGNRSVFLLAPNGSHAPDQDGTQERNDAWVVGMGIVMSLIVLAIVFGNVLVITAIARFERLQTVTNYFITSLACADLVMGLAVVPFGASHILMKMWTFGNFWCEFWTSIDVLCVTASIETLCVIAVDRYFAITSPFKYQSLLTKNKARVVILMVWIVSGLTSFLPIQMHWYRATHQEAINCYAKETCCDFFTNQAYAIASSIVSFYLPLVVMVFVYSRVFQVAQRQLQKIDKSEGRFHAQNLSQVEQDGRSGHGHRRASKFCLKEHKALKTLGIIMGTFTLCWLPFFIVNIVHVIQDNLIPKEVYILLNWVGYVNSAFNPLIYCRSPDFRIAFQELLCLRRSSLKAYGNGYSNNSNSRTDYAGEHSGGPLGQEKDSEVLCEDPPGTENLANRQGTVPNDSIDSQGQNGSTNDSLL
Text: as §1

β1-Rezeptoren [7] = molecular target: T4, β1-Rezeptoren (Canis lupus familiaris, UniProt P79148); test: β1 blockade, heart rate and contractility in the whole animal; format: in vivo; conditions: Hund; relative to Propranolol
T4 construct: from tissue; host or cells: dog, whole animal (heart)
T4 sequence (P79148 whole entry): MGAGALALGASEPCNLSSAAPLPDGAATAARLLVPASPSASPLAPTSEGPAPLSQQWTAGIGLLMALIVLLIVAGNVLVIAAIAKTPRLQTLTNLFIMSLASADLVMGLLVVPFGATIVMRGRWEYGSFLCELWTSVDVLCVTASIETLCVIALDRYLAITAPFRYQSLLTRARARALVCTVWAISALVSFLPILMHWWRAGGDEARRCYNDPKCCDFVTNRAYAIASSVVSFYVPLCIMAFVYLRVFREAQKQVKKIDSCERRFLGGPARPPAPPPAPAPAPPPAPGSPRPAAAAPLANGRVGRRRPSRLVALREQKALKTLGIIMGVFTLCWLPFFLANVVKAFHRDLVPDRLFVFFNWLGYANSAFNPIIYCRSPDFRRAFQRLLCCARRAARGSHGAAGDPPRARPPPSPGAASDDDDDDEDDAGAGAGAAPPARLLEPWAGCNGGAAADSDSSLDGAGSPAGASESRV
Text: as §1

β1-Rezeptoren [8] = molecular target: T5, β1-Rezeptoren (Felis catus, UniProt Q9TST6); test: as above; format: in vivo; conditions: Katze; relative to Propranolol
T5 construct: from tissue; host or cells: cat, whole animal (heart)
T5 sequence (Q9TST6 whole entry): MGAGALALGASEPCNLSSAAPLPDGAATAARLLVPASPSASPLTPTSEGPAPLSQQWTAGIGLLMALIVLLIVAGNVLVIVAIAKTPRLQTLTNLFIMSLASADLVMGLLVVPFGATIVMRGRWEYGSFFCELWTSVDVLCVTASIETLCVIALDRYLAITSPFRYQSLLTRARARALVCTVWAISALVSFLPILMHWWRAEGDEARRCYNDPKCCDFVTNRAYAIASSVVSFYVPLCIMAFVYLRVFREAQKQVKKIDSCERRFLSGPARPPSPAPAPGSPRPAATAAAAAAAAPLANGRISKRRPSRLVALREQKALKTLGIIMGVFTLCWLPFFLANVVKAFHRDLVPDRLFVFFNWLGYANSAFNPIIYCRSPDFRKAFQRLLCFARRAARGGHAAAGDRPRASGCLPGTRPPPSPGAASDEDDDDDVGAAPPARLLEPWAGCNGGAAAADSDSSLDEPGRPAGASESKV
Text: as §1

[9] = tested on: elektrischen Flimmerschwelle; test: Antiarrhythmic effect, rise of the electrical fibrillation threshold; format: in vivo, Meerschweinchen; conditions: for ED50: Cavia porcellus, read-out: ED50, Erhöhung der elektrischen Flimmerschwelle
Text: as §1

[10] = molecular target: T6, adrenergen β2-Rezeptoren der Bronchialmuskulatur (Cavia porcellus, UniProt Q8K4Z4); test: Tolerance time to asthma-inducing histamine in the conscious guinea pig; format: in vivo, Meerschweinchen; conditions: read-out: ED50, Verdopplung der Toleranzzeit gegenüber dem asthmaauslösenden Histamin
T6 construct: from tissue; host or cells: conscious guinea pig, whole animal (airways)
T6 sequence (Q8K4Z4 whole entry): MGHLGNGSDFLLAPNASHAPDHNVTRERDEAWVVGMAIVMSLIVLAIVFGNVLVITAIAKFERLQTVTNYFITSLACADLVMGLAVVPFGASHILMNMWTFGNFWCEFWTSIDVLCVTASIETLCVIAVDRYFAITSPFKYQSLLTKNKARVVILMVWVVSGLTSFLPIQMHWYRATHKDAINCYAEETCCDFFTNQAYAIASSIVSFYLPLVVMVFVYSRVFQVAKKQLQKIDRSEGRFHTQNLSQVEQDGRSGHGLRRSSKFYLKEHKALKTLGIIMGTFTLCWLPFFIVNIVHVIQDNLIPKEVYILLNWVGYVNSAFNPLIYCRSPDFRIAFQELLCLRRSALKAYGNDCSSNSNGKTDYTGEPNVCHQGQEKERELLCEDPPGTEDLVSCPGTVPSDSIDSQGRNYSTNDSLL
Text: as §1

β1-Rezeptoren [11] = test: Isoproterenol antagonism, lipolysis in epididymal fat; conditions: Isoproterenolantagonismus, Propranolol = 100; Ratte
β1-Rezeptoren [12] = test: Isoproterenol antagonism, intestinal peristalsis; conditions: Isoproterenolantagonismus, Propranolol = 100; Kaninchen
[13] = tested on: Myokardinfarktmodell der Ratte; test: Myocardial infarction model, prophylactic oral dosing before coronary ligation; conditions: relative to Propranolol; orale Applikation von 3,6 und 12 mg/kg I über 28 Tage vor Ligatur der A. coronaria sinistra; CPK, GOT, EKG-Veränderungen, relatives Infarktgewicht
[14] = tested on: adrenergen β2-Rezeptoren der Bronchialmuskulatur; test: β2 stimulation of bronchial muscle, isolated tracheal muscle and whole animal; conditions: am isolierten Trachealmuskel als auch im Ganztierversuch
Text: as §1

in vivo = conditions: mouse, ip
Text: as §1

- stimulierende Effekte an den β2-Rezeptoren der Gefäße (β2-Rezeptoren der Gefäße [1]): fehlen
Compound: COc1ccc(CCNCC(O)COc2cc(Cl)ccc2Cl)cc1OC (stereo not shown) [1-(2,5-Dichlor-phenoxy)-3-(3,4-dimethoxy-ß-phenethylamino)-propanol-(2)]

Compound: COc1ccc(CCNCC(O)COc2ccc(Cl)cc2Cl)cc1OC (stereo not drawn) [I, 1-(2,4-Dichlorphenoxy)-3-(3,4-dimethoxy-β-phenethylamino)-propanol-(2)]
- Antiparkinsonwirkung [2]: etwa die gleiche Antiparkinsonwirkung wie Trihexylphenidyl
- antihypertensiver Effekt [3]: ~10
- Atemzeitvolumen [4]: isoproterenolähnlichen Vergrößerung des Atemzeitvolumens
- blutdrucksenkender Effekt des Isoproterenols (β2-Rezeptoren der Gefäße [5]): Verstärkung der Isoproterenolwirkung
- blutdrucksenkender Effekt des Isoproterenols (β2-Rezeptoren der Gefäße [6]): Verstärkung der Isoproterenolwirkung
- Wirksamkeit an den β1-Rezeptoren (Herzfrequenz und Kontralctilität am Ganztier) (β1-Rezeptoren [7]): nur halb so wirksam wie Propranolol
- Wirksamkeit an den β1-Rezeptoren (Herzfrequenz und Kontralctilität am Ganztier) (β1-Rezeptoren [8]): nur halb so wirksam wie Propranolol
- ED50 ([9]; Meerschweinchen): 0.22 mg/kg
- ED50 [10]: 0.76 mg/kg
- Stärke der β1-Rezeptorenblockade, Lipolyse (Epiditymalfett) (β1-Rezeptoren [11]): 220
- Stärke der β1-Rezeptorenblockade, Darmperistaltik (β1-Rezeptoren [12]): 100
- kardioprotektive Wirkung [13]: zweimal
- Stimulation der adrenergen β2-Rezeptoren der Bronchialmuskulatur [14]: nachweisen läßt
- LD50 (in vivo): 141 mg/kg

Compound: CC(C)NCC(O)c1ccc(O)c(O)c1 (stereo not shown) [Isoproterenol, reference compound]
- ED50 [10]: 0.04 mg/kg

Compound: CC(C)NCC(O)COc1cccc2ccccc12 (stereo not shown) [Propranolol, reference compound]
- blutdrucksenkender Effekt des Isoproterenols (β2-Rezeptoren der Gefäße [6]): aufhebt
- ED50 ([9]; Meerschweinchen): 1.4 mg/kg

Compound: CC(C)(C)NCC(O)COc1ccc(NC(=O)NC2CCCCC2)cc1 (stereo not shown) [Talinolol, reference compound]
- ED50 [9]: 0.31 mg/kg
- Stärke der β1-Rezeptorenblockade, Lipolyse (Epiditymalfett) (β1-Rezeptoren [11]): 96
- Stärke der β1-Rezeptorenblockade, Darmperistaltik (β1-Rezeptoren [12]): 35

Compound: Tachmalin
- ED50, Erhöhung der elektrischen Flimmerschwelle ([9]; Meerschweinchen): 0,71 mg/kg
